From ChEMBL document CHEMBL3507680, “University of Dundee, Gates Library screen for HepG2 cell viability”

Test: Human HepG2 cell viability assay in 384 well format
Assay type: toxicity, cell-based
Parameters: dose 125 nL, time 70.5 hour; concentration not given beside the values
Details: HepG2 cells, read-out: Inhibition

SMILES	cytotoxicity at 70.5 h
CS(=O)(=O)C1=C(O)C(=O)N(c2ccccc2)C1c1ccccc1 (configuration not stated)	-4.58%
Cc1ccc2c(c1)c(C)cc(=O)n2CCC(=O)O	-6.14%
Cc1nc(N2CCCC2)nc2c1CCN(C(=O)CC1CC1)CC2	-8.4%
COC[C@H]1CCC[C@]12CN(C(=O)NCc1ccccc1)CCO2	-16.8%
O=C(NCC1CC1)C1CN(C(=O)c2cccc(Cl)c2)CC12CCOCC2 (configuration not stated)	38.6%
CCC1=N[C@@]2(CC[C@@H]3CN(S(=O)(=O)CC(C)C)C[C@@H]32)C(=O)N1C	-1.14%
Cc1csc([C@@H]2C[C@@H]3CCN(C(=O)c4ccnnc4)C[C@H]3O2)n1	-3.66%
Cn1ccnc1CN1CCC2(CC1)CN(CC1CC1)C(=O)CO2	12.3%
CC(C)N(C)Cc1nnc2n1CCCN(C(=O)c1ccco1)C2	-6.16%
O=C(C1CC=CC1)N1C[C@@H]2[C@@H](C1)OCC(=O)N2Cc1cccnc1	0.567%
Cc1ccoc1C(=O)N1CC[C@H]2OCC[C@@]2(COCc2ccncc2)C1	-5.41%
O=C(NCC1CC1)C1CN(C(=O)c2cccnc2)CC12CCOCC2 (configuration not stated)	-7.11%
COCC1CN(C(=O)C2=CCCCC2)Cc2cnn(CC3CC3)c21 (configuration not stated)	-2.03%
CS(=O)(=O)NC[C@]12COC[C@H]1CN(C(=O)c1ccccc1)C2	-3.75%
CS(=O)(=O)NC[C@]12COC[C@H]1CN(C(=O)Cc1ccccc1F)C2	-1.03%
Cc1csc([C@@H]2C[C@@H]3CCN(C(=O)c4cc(C)on4)C[C@H]3O2)n1	-1.08%
CC(C)NC(=O)N1CCN(S(=O)(=O)C2CC2)CC2(CNC(=O)C2)C1 (configuration not stated)	1.9%
Cn1nnc2c1C(COCC1CC1)CN(C(=O)Cc1ccsc1)C2 (configuration not stated)	-0.74%
CC(C)NC(=O)N1CCN(S(=O)(=O)C2CC2)CC2(CC(=O)N(C)C2)C1 (configuration not stated)	0.827%
O=C1CCC2(CCCN(c3ncc(F)cn3)CC2)N1CC1CC1 (configuration not stated)	-1.42%
COCC1CC2(CCN(C(=O)c3occc3C)CC2)CO1 (configuration not stated)	-6.11%
O=C(c1ccsc1)N1CC(C(=O)N2CCOCC2)C2(CCOCC2)C1 (configuration not stated)	-1.97%
O=C(CCc1ccccc1)N1CCn2cc(CN3CCCC3)nc2C1	-11.7%
Cc1cc(C(=O)N2C[C@@H]3COC[C@]3(COCc3cccnc3)C2)no1	-12%
COc1ccc2c(c1)C1(CCN(Cc3ccoc3)CC1)N(C)CC2	-5.64%
Cn1nc(C(=O)NN2CCOCC2)c(Cl)c1C(F)(F)F	-3.83%

SMILES	cytotoxicity at 70.5 h
CC(C(=O)NN1CCOCC1)n1nc(C(F)(F)F)c(Cl)c1C1CC1 (configuration not stated)	6.2%
N#Cc1cc(C#N)c(SCC(=O)Nc2ccc(F)cc2)nc1N	5.41%
CCC(=O)c1ccc(Br)cc1NN1c2cc(Br)ccc2C(=O)C1(C)OC (configuration not stated)	13.3%
CCC1=NN2C(=N)/C(=C/c3cccc(Cl)c3)C(=O)N=C2S1	-5.39%
CN(C)c1nc2n(c(=O)n1)CCN2C(=O)Nc1cccc(Cl)c1	-9.23%
CCOC(=O)Cn1cnc2nc3n(c2c1=O)CCC3	-2.23%
OC(CN1CCOCC1)c1ccc(Br)cc1 (configuration not stated)	-4.1%
CCc1oc2ccc(NS(C)(=O)=O)cc2c1C(=O)OC	0.398%
CCS(=O)(=O)Nc1ccc2oc(C)c(C(=O)OC)c2c1	-15%
CC/N=c1\c(NC(=O)C(C)(C)C)c(O)oc2ccccc12	22.9%
CCOC(=O)c1sc(NC(=O)COC)c(C#N)c1C	28.6%
COCC(=O)NC[C@H]1CC[C@H](c2ccnc3ncnn32)CC1	-8.99%
Cc1cccc(NC(=O)c2cncc(C3CCNCC3)n2)n1	-5.87%
NC(=O)c1cn[nH]c1C1CCCN1C(=O)c1ccccc1 (configuration not stated)	-5.37%
c1nnc(Nc2cncc(C3CCCN3CC3CC3)n2)s1 (configuration not stated)	0.394%
Cc1nn(C)cc1NC(=O)CN1CCC(Oc2cnccn2)CC1	-4.13%
Cc1n[nH]c(C)c1S(=O)(=O)N1CCC(Oc2cnccn2)CC1	-2.37%
Cc1ccccc1OC1CCN(S(=O)(=O)c2c(C)n[nH]c2C)CC1	-6.57%
CC(=O)N1CCC(C)(c2nc(C)no2)CC1	-5%
CN1CCC(c2[nH]ncc2S(C)(=O)=O)CC1	-7.29%
Cc1nc2c(c(Nc3ccccn3)n1)CN(S(C)(=O)=O)CC2	23.4%
O=C(NCC1(O)COCCN(Cc2ccc(O)cc2)C1)c1cnccn1 (configuration not stated)	-9.12%
Cc1cc(C)nc(N2CC=C[C@H]2C(=O)NCc2ccc3c(c2)OCO3)n1	-3.34%
c1cc(CCNc2ncc(-c3cnccn3)c(C3CC3)n2)ccn1	-5.03%
Cc1c(C2=NS(=O)(=O)N(C)C(C(=O)Nc3ccc(Br)cc3)=C2)cnn1C	22.2%
Cc1nn(C)cc1C1=NS(=O)(=O)N(C)C(C(=O)Nc2ccc(Br)cc2)=C1	0.0552%

SMILES	cytotoxicity at 70.5 h
Cc1cc(-c2ccc(=O)n(C3CCN(C(=O)C4CCC4)CC3)n2)c(C)o1	1.9%
CCCS(=O)(=O)N1CCC(n2nc(-c3cc(C)oc3C)ccc2=O)CC1	8.97%
O=C(O)[C@@H]1CCN(C(=O)c2cscn2)[C@@H]1c1ccc(F)cc1	-2.87%
Cc1nccn1-c1ccc(CN2CC3C[C@@H](O)CN3C[C@@H]2C)cc1 (some centres not stated)	-7.07%
CNC(=O)c1cn[nH]c1C1CCCN1C(=O)c1ccccn1 (configuration not stated)	-1.79%
Cc1ccccc1NC(=O)c1cncc(C2CCNCC2)n1	-4.64%
CC1(C)Cc2cc(-c3cncn3CCNC3CCS(=O)(=O)C3)ccc2O1 (configuration not stated)	-0.723%
Cc1cc(C)nc(N2CC=C[C@@H]2C(=O)NCc2ccc3c(c2)OCO3)n1	-9.16%
C[C@H]1CN2C[C@H](O)CC2CN1Cc1ccc2nccnc2c1 (some centres not stated)	-1.32%
CCS(=O)(=O)N1C[C@H]2CCC[C@@]2(COc2ccccn2)C1	-21.9%
O=C(c1cnccn1)N1CCOCC2(CCN(C3CCOCC3)C2)C1 (configuration not stated)	-15.5%
COc1ccccc1CN1CC[C@H]2C[C@@H](C(=O)N3CCCC3)O[C@H]2C1	-7.49%
O=C(c1ccccn1)N1CCn2cnc(COCC3CC3)c2C1	-1.29%
O=C([C@H]1CCCO1)N1CC[C@H](O)[C@@H]1Cc1ccncc1	1.55%
Cc1nc(CN2CC3(CCN(c4ncc(F)cn4)C3)CC2=O)cs1 (configuration not stated)	-0.115%
O=C(NC1COC2(CCN(Cc3ccccn3)CC2)C1)c1ccccn1 (configuration not stated)	3.59%
O=C(c1cccnc1)N1CCCC2(CCN(c3ccsc3)C2=O)C1 (configuration not stated)	13.9%
CCS(=O)(=O)N1CCC2(CC1)CC(Oc1ccccn1)CO2 (configuration not stated)	-18.2%
Cc1noc([C@@H]2C[C@H]3CN(Cc4cc(C)on4)C[C@H]3O2)n1	-4.39%
c1ccc(CO[C@H]2CO[C@@]3(CCN(Cc4ccoc4)C3)C2)nc1	-18.7%
COc1ccc(CN2CCn3cc(CN4CCCCC4)nc3C2)cc1	29.5%
Cc1ccc(CN2CCn3cc(CN(C)Cc4ccco4)nc3C2)o1	0.0869%
O=C1COC2(COCCN(Cc3cccnc3)C2)CN1c1ccoc1 (configuration not stated)	-9.07%
COCCN1C[C@@H]2CN(Cc3ccsc3)CCC[C@]2(C(=O)O)C1	-12.1%
CCOC(=O)[C@]12CCCN(Cc3ccco3)C[C@H]1CN(CCN(C)C)C2	-8.65%
